Assay results reported in patent US20220117938A1, “COMBINATON THERAPY WITH A DON PRODRUG AND AN IMMUNE CHECKPOINT INHIBITOR” (DRACEN PHARMACEUTICALS, INC., priority 2019, published 2022).

Test system: MC-38 tumors
Experiment: Anti-tumor efficacy of Compound 1 in the subcutaneous MC-38 murine colorectal cancer model: dose response (Example 1)
Format: in vivo, Mus musculus
Conditions: for Tumor volume (mm^3), Mean ± SEM: n = 8; for RTV at day 14 / T/C (%) / TGI (%) / Tumor Size (mm^3) at day 14: day 14; for ILS (%) / MST: endpoint tumor volume 2000 mm^3
Experimental: Female C57BL/6 mice were inoculated subcutaneously at right flank with MC-38 cells for tumor development. Four days after tumor inoculation, 64 mice with tumor size ranging from 50-92 mm^3 (average tumor size 63 mm^3) were selected and assigned into 8 groups using stratified randomization with 8 mice per group based upon their tumor volumes. The treatments were started from the day of randomization (defined as D0), Group 1 was treated with Vehicle (Tween 80:Ethanol:Saline—5:5:90 v/v/v), S.C. QD, Group 2 was treated with Compound 1 (0.1 mg/kg), S.C. QD, Group 3 was treated with Compound 1 (0.3 mg/kg), S.C. QD, Group 4 was treated with Compound 1 (0.5 mg/kg), S.C. QD, Group 5 was treated with Compound 1 (1 mg/kg), S.C. QD, Group 6 was treated with Compound 1 (3 mg/kg), S.C. QD*5 days followed by Compound 1 (1 mg/kg), S.C. QD*9 days (2 cycles), Group 7 was treated with Compound 1 (1 mg/kg), S.C. QD*5 days followed by Compound 1 (0.3 mg/kg), S.C. QD*9 days (2 cycles) and Group 8 was treated with Compound 1 (0.15 mg/kg), S.C. BID. The tumor sizes were measured three times per week during the treatment. The entire study was terminated on D74 after start of the treatment.
Animal Species: Mus musculus; Strain: C57BL/6; Age: 6-8 weeks; Sex: female; Body weight (at treatment start): 17-21 g.
The MC-38 tumor cells were maintained in vitro as a monolayer culture in DMEM medium supplemented with 10% heat inactivated fetal bovine serum and 100 μg/mL penicillin streptomycin at 37° C. in an atmosphere of 5% CO2 in air. The tumor cells were routinely subcultured twice weekly by trypsin-EDTA treatment. The cells growing to a confluency around 70%-80% were harvested and counted for tumor inoculation. The cultured MC-38 were harvested, re-suspended in base medium at a density of 1×10^7 cells/mL with viability>90%. Each mouse was inoculated subcutaneously at the right flank with 1×10^6 in 0.1 ml base medium for tumor development.
The treatments were started on day 4 after tumor inoculation when the tumor size reached 50-92 mm^3 (average tumor size 63 mm^3). Each group consisted of 8 tumor bearing mice. The testing article was administrated at a dosing volume of […] to the mice according to the predetermined regimen shown in Table 1-1. Testing article formulations were prepared according to standard procedures. Details regarding tumor measurements and endpoints, and statistical analysis are provided in EXAMPLE 3.
Tumor sizes were measured three times a week in two dimensions using a caliper, and the volume expressed in mm^3 using the formula: V=0.5 a×b^2 where a and b are the long and short diameters of the tumor, respectively. The tumor sizes were then used for the calculations of both tumor growth inhibition (TGI) and T/C values.
TGI is calculated for each group using the formula: […]
TVTreatment_DayN is the average tumor volume of a treatment group on a given day, TVTreatment_Day0 is the average tumor volume of the treatment group on the first day of treatment, TVVehicle_DayN is the average tumor volume of the vehicle control group on a given day, and TVVehicle_Day0 is the average tumor volume of the vehicle group on the first day of treatment.
The T/C value (in percent) is an indication of antitumor effectiveness, T/C (%)=RTVTreatment/RTVControl×100% (RTVTreatment: the mean RTV of the treatment group; RTVControl: the mean RTV of the vehicle treated group). RTV (relative tumor volume)=TVDayN/TVDay0. TVDayN and TVDay0 is the tumor volume on day N and Day 0 respectively. T/C (%)≤42% is considered as significant antitumor activity and <10% is considered as highly significant antitumor activity by the National Cancer Institute criteria.
Animal survival curve: When an individual animal reached to the termination endpoint (TV>2000 mm^3), the mouse was euthanized. The time from treatment initiation to the termination was deemed as its survival time. Survival curve was plotted by Kaplan-Meier method. Median survival time (MST) was calculated for each group. […]

[1] = 1 & 0.3 mg/kg (1 mg/kg QDx5 then 0.3 mg/kg QDx9 S.C.)
[2] = 3 & 1 mg/kg (3 mg/kg QDx5 then 1 mg/kg QDx9 S.C.)
[3] = Treatment (0.1) mg/kg, last line of the table

CC(=O)N[C@@H](Cc1c[nH]c2ccccc12)C(=O)N[C@@H](CCC(=O)C=[N+]=[N-])C(=O)OC(C)C [Compound 1, Isopropyl (S)-2-((S)-2-acetamido-3-(1H-indol-3-yl)propanamido)-6-diazo-5-oxohexanoate]
Tumor volume (mm^3), Mean ± SEM (0.1 mg/kg S.C. QD, Day 0): 62 ± 4 mm^3
Tumor volume (mm^3), Mean ± SEM (0.1 mg/kg S.C. QD, Day 2): 91 ± 10 mm^3
Tumor volume (mm^3), Mean ± SEM (0.1 mg/kg S.C. QD, Day 4): 112 ± 11 mm^3
Tumor volume (mm^3), Mean ± SEM (0.1 mg/kg S.C. QD, Day 7): 183 ± 32 mm^3
Tumor volume (mm^3), Mean ± SEM (0.1 mg/kg S.C. QD, Day 9): 247 ± 40 mm^3
Tumor volume (mm^3), Mean ± SEM (0.1 mg/kg S.C. QD, Day 11): 368 ± 72 mm^3
Tumor volume (mm^3), Mean ± SEM (0.1 mg/kg S.C. QD, Day 14): 744 ± 154 mm^3
RTV at day 14 (0.1 mg/kg S.C. QD): 12.29 ± 7.63
T/C (%) (0.1 mg/kg S.C. QD): 40.26%
TGI (%) (0.1 mg/kg S.C. QD): 62.52%
Tumor Size (mm^3) at day 14 (0.1 mg/kg S.C. QD): 743.79 ± 153.64 mm^3
ILS (%) (0.1 mg/kg): 22%
MST (0.1 mg/kg): 19.5 days
ILS (%) (0.15 mg/kg (BID)): 88%
MST (0.15 mg/kg (BID)): 30 days
Tumor volume (mm^3), Mean ± SEM (0.15 mg/kg S.C. BID, Day 0): 63 ± 5 mm^3
Tumor volume (mm^3), Mean ± SEM (0.15 mg/kg S.C. BID, Day 2): 87 ± 6 mm^3
Tumor volume (mm^3), Mean ± SEM (0.15 mg/kg S.C. BID, Day 4): 109 ± 6 mm^3
Tumor volume (mm^3), Mean ± SEM (0.15 mg/kg S.C. BID, Day 7): 195 ± 28 mm^3
Tumor volume (mm^3), Mean ± SEM (0.15 mg/kg S.C. BID, Day 9): 237 ± 30 mm^3
Tumor volume (mm^3), Mean ± SEM (0.15 mg/kg S.C. BID, Day 11): 288 ± 43 mm^3
Tumor volume (mm^3), Mean ± SEM (0.15 mg/kg S.C. BID, Day 14): 369 ± 56 mm^3
Tumor volume (mm^3), Mean ± SEM (0.3 mg/kg S.C. QD, Day 0): 62 ± 4 mm^3
Tumor volume (mm^3), Mean ± SEM (0.3 mg/kg S.C. QD, Day 2): 76 ± 5 mm^3
Tumor volume (mm^3), Mean ± SEM (0.3 mg/kg S.C. QD, Day 4): 88 ± 7 mm^3
Tumor volume (mm^3), Mean ± SEM (0.3 mg/kg S.C. QD, Day 7): 110 ± 14 mm^3
Tumor volume (mm^3), Mean ± SEM (0.3 mg/kg S.C. QD, Day 9): 143 ± 26 mm^3
Tumor volume (mm^3), Mean ± SEM (0.3 mg/kg S.C. QD, Day 11): 140 ± 29 mm^3
Tumor volume (mm^3), Mean ± SEM (0.3 mg/kg S.C. QD, Day 14): 235 ± 80 mm^3
RTV at day 14 (0.3 mg/kg S.C. QD): 3.83 ± 3.95
T/C (%) (0.3 mg/kg S.C. QD): 12.54%
TGI (%) (0.3 mg/kg S.C. QD): 90.47%
Tumor Size (mm^3) at day 14 (0.3 mg/kg S.C. QD): 235.18 ± 79.89 mm^3
ILS (%) (0.3 mg/kg): 94%
MST (0.3 mg/kg): 31 days
Tumor volume (mm^3), Mean ± SEM (0.5 mg/kg S.C. QD, Day 0): 63 ± 5 mm^3
Tumor volume (mm^3), Mean ± SEM (0.5 mg/kg S.C. QD, Day 2): 79 ± 4 mm^3
Tumor volume (mm^3), Mean ± SEM (0.5 mg/kg S.C. QD, Day 4): 97 ± 8 mm^3
Tumor volume (mm^3), Mean ± SEM (0.5 mg/kg S.C. QD, Day 7): 112 ± 8 mm^3
Tumor volume (mm^3), Mean ± SEM (0.5 mg/kg S.C. QD, Day 9): 109 ± 7 mm^3
Tumor volume (mm^3), Mean ± SEM (0.5 mg/kg S.C. QD, Day 11): 84 ± 9 mm^3
Tumor volume (mm^3), Mean ± SEM (0.5 mg/kg S.C. QD, Day 14): 97 ± 17 mm^3
RTV at day 14 (0.5 mg/kg S.C. QD): 1.63 ± 0.88
T/C (%) (0.5 mg/kg S.C. QD): 5.33%
TGI (%) (0.5 mg/kg S.C. QD): 98.16%
Tumor Size (mm^3) at day 14 (0.5 mg/kg S.C. QD): 96.6 ± 16.6 mm^3
ILS (%) (0.5 mg/kg): 131%
MST (0.5 mg/kg): 37 days
Tumor volume (mm^3), Mean ± SEM (1 mg/kg QDx5 then 0.3 mg/kg QDx9 S.C., 2 cycles, Day 0): 63 ± 4 mm^3
Tumor volume (mm^3), Mean ± SEM (1 mg/kg QDx5 then 0.3 mg/kg QDx9 S.C., 2 cycles, Day 2): 73 ± 5 mm^3
Tumor volume (mm^3), Mean ± SEM (1 mg/kg QDx5 then 0.3 mg/kg QDx9 S.C., 2 cycles, Day 4): 85 ± 7 mm^3
Tumor volume (mm^3), Mean ± SEM (1 mg/kg QDx5 then 0.3 mg/kg QDx9 S.C., 2 cycles, Day 7): 97 ± 10 mm^3
Tumor volume (mm^3), Mean ± SEM (1 mg/kg QDx5 then 0.3 mg/kg QDx9 S.C., 2 cycles, Day 9): 101 ± 9 mm^3
Tumor volume (mm^3), Mean ± SEM (1 mg/kg QDx5 then 0.3 mg/kg QDx9 S.C., 2 cycles, Day 11): 116 ± 19 mm^3
Tumor volume (mm^3), Mean ± SEM (1 mg/kg QDx5 then 0.3 mg/kg QDx9 S.C., 2 cycles, Day 14): 119 ± 22 mm^3
Tumor volume (mm^3), Mean ± SEM (1 mg/kg S.C. QD, Day 0): 62 ± 4 mm^3
Tumor volume (mm^3), Mean ± SEM (1 mg/kg S.C. QD, Day 2): 74 ± 5 mm^3
Tumor volume (mm^3), Mean ± SEM (1 mg/kg S.C. QD, Day 4): 85 ± 5 mm^3
Tumor volume (mm^3), Mean ± SEM (1 mg/kg S.C. QD, Day 7): 94 ± 5 mm^3
Tumor volume (mm^3), Mean ± SEM (1 mg/kg S.C. QD, Day 9): 100 ± 7 mm^3
Tumor volume (mm^3), Mean ± SEM (1 mg/kg S.C. QD, Day 11): 80 ± 8 mm^3
Tumor volume (mm^3), Mean ± SEM (1 mg/kg S.C. QD, Day 14): 68 ± 12 mm^3
RTV at day 14 (1 mg/kg S.C. QD): 1.13 ± 0.67
T/C (%) (1 mg/kg S.C. QD): 3.71%
TGI (%) (1 mg/kg S.C. QD): 99.69%
Tumor Size (mm^3) at day 14 (1 mg/kg S.C. QD): 68.23 ± 12.12 mm^3
ILS (%) (1 mg/kg, then 0.3 mg/kg): 131%
MST (1 mg/kg, then 0.3 mg/kg): 37 days
ILS (%) (1 mg/kg): 144%
MST (1 mg/kg): 39 days
Tumor volume (mm^3), Mean ± SEM (3 mg/kg QDx5 then 1 mg/kg QDx9 S.C., 2 cycles, Day 0): 63 ± 5 mm^3
Tumor volume (mm^3), Mean ± SEM (3 mg/kg QDx5 then 1 mg/kg QDx9 S.C., 2 cycles, Day 2): 70 ± 3 mm^3
Tumor volume (mm^3), Mean ± SEM (3 mg/kg QDx5 then 1 mg/kg QDx9 S.C., 2 cycles, Day 4): 83 ± 7 mm^3
Tumor volume (mm^3), Mean ± SEM (3 mg/kg QDx5 then 1 mg/kg QDx9 S.C., 2 cycles, Day 7): 87 ± 8 mm^3
Tumor volume (mm^3), Mean ± SEM (3 mg/kg QDx5 then 1 mg/kg QDx9 S.C., 2 cycles, Day 9): 90 ± 6 mm^3
Tumor volume (mm^3), Mean ± SEM (3 mg/kg QDx5 then 1 mg/kg QDx9 S.C., 2 cycles, Day 11): 79 ± 10 mm^3
Tumor volume (mm^3), Mean ± SEM (3 mg/kg QDx5 then 1 mg/kg QDx9 S.C., 2 cycles, Day 14): 43 ± 4 mm^3
ILS (%) (3 mg/kg, then 1 mg/kg): 131%
MST (3 mg/kg, then 1 mg/kg): 37 days
RTV at day 14 [1]: 1.85 ± 0.82
T/C (%) [1]: 6.05%
TGI (%) [1]: 96.95%
Tumor Size (mm^3) at day 14 [1]: 118.69 ± 21.92 mm^3
RTV at day 14 [2]: 0.69 ± 0.16
T/C (%) [2]: 2.27%
TGI (%) [2]: 101.09%
Tumor Size (mm^3) at day 14 [2]: 42.91 ± 3.89 mm^3
RTV at day 14 [3]: 5.99 ± 2.92
T/C (%) [3]: 19.62%
TGI (%) [3]: 83.19%
Tumor Size (mm^3) at day 14 [3]: 369.41 ± 56.37 mm^3
